In the NIST ThermoML archive (doi:10.1021/je500804j):

Experiment: mn = molality of the nth substance listed, in mol/kg
Details: 101 kPa, Liquid, Alternating current cell with electrodes

CCCCCCCC[N+](C)(C)CCCCCCCCCCCC[N+](C)(C)CCCCCCCC.[Br-].[Br-] + O
Details	electrical conductivity [S/m]
308.15 K, m1 = 0.01941	0.3482
308.15 K, m1 = 0.02017	0.3578
308.15 K, m1 = 0.02093	0.3674
308.15 K, m1 = 0.02167	0.3751
308.15 K, m1 = 0.0224	0.3838
308.15 K, m1 = 0.02312	0.3913
308.15 K, m1 = 0.02383	0.4003
308.15 K, m1 = 0.02453	0.4069
308.15 K, m1 = 0.02522	0.4161
308.15 K, m1 = 0.02589	0.421
308.15 K, m1 = 0.02722	0.4336
308.15 K, m1 = 0.02787	0.4365
308.15 K, m1 = 0.02851	0.4424
308.15 K, m1 = 0.02956	0.4571
308.15 K, m1 = 0.03058	0.4621
308.15 K, m1 = 0.03158	0.4749
308.15 K, m1 = 0.03256	0.48
308.15 K, m1 = 0.03351	0.489
308.15 K, m1 = 0.03536	0.5074
308.15 K, m1 = 0.03625	0.5158
308.15 K, m1 = 0.03712	0.5223
308.15 K, m1 = 0.03798	0.527
308.15 K, m1 = 0.03964	0.541
308.15 K, m1 = 0.04123	0.5548
308.15 K, m1 = 0.04275	0.5671
308.15 K, m1 = 0.04422	0.5777
308.15 K, m1 = 0.04563	0.5885
308.15 K, m1 = 0.04699	0.5986
308.15 K, m1 = 0.04829	0.6068
308.15 K, m1 = 0.05077	0.6251
308.15 K, m1 = 0.05194	0.6322
313.15 K, m1 = 0.00357	0.06951
313.15 K, m1 = 0.00692	0.1517
313.15 K, m1 = 0.01009	0.2177
313.15 K, m1 = 0.01308	0.2687
313.15 K, m1 = 0.01591	0.3262
313.15 K, m1 = 0.01726	0.3465
313.15 K, m1 = 0.01859	0.3645
313.15 K, m1 = 0.01987	0.3859
313.15 K, m1 = 0.02113	0.4024
313.15 K, m1 = 0.02187	0.4121
313.15 K, m1 = 0.02259	0.4248
313.15 K, m1 = 0.02331	0.4317
313.15 K, m1 = 0.02401	0.4367
313.15 K, m1 = 0.02471	0.4441
313.15 K, m1 = 0.02539	0.4521
313.15 K, m1 = 0.02606	0.4597
313.15 K, m1 = 0.02673	0.467
313.15 K, m1 = 0.02803	0.4808
313.15 K, m1 = 0.02866	0.4878
313.15 K, m1 = 0.02929	0.4944
313.15 K, m1 = 0.03052	0.5075
313.15 K, m1 = 0.03112	0.5138
313.15 K, m1 = 0.03171	0.5209
313.15 K, m1 = 0.0323	0.5266
313.15 K, m1 = 0.03326	0.5361
313.15 K, m1 = 0.03419	0.5442
313.15 K, m1 = 0.03511	0.5535
313.15 K, m1 = 0.036	0.5625
313.15 K, m1 = 0.03688	0.5732
313.15 K, m1 = 0.03774	0.5794
313.15 K, m1 = 0.03858	0.5898
313.15 K, m1 = 0.0394	0.5956
313.15 K, m1 = 0.041	0.6125
313.15 K, m1 = 0.04253	0.6257
313.15 K, m1 = 0.044	0.637
313.15 K, m1 = 0.04541	0.6512
313.15 K, m1 = 0.04678	0.665
313.15 K, m1 = 0.04809	0.6744
313.15 K, m1 = 0.04935	0.6838
313.15 K, m1 = 0.05057	0.6958
313.15 K, m1 = 0.05175	0.7055
318.15 K, m1 = 0.00371	0.07542
318.15 K, m1 = 0.00722	0.164
318.15 K, m1 = 0.01052	0.245
318.15 K, m1 = 0.01364	0.3143
318.15 K, m1 = 0.01659	0.3687
318.15 K, m1 = 0.01801	0.3868
318.15 K, m1 = 0.01939	0.4168
318.15 K, m1 = 0.02073	0.43
318.15 K, m1 = 0.02204	0.4546
318.15 K, m1 = 0.0228	0.465
318.15 K, m1 = 0.02356	0.4755
318.15 K, m1 = 0.02431	0.4857
318.15 K, m1 = 0.02577	0.5063
318.15 K, m1 = 0.02648	0.5133
318.15 K, m1 = 0.02718	0.5232
318.15 K, m1 = 0.02787	0.5323
318.15 K, m1 = 0.02856	0.5407
318.15 K, m1 = 0.02923	0.5499
318.15 K, m1 = 0.02989	0.5578
318.15 K, m1 = 0.03119	0.5732
318.15 K, m1 = 0.03245	0.5881
318.15 K, m1 = 0.03307	0.5997
318.15 K, m1 = 0.03368	0.6044
318.15 K, m1 = 0.03428	0.6091
318.15 K, m1 = 0.03488	0.6155
318.15 K, m1 = 0.03546	0.6234
318.15 K, m1 = 0.03604	0.6307
318.15 K, m1 = 0.03661	0.6379
318.15 K, m1 = 0.03717	0.6434
318.15 K, m1 = 0.03828	0.655
318.15 K, m1 = 0.03918	0.6646
318.15 K, m1 = 0.04006	0.6728
318.15 K, m1 = 0.04092	0.681
318.15 K, m1 = 0.04176	0.6915
318.15 K, m1 = 0.04259	0.6986
318.15 K, m1 = 0.04419	0.7143
318.15 K, m1 = 0.04573	0.732
318.15 K, m1 = 0.04721	0.7463
318.15 K, m1 = 0.04863	0.7603
318.15 K, m1 = 0.05001	0.7719
318.15 K, m1 = 0.05133	0.7858
323.15 K, m1 = 0.00357	0.08471
323.15 K, m1 = 0.00693	0.1849
323.15 K, m1 = 0.01009	0.2444
323.15 K, m1 = 0.01308	0.3157
323.15 K, m1 = 0.01591	0.3898
323.15 K, m1 = 0.01859	0.436
323.15 K, m1 = 0.02113	0.483
323.15 K, m1 = 0.02355	0.5236
323.15 K, m1 = 0.02585	0.561
323.15 K, m1 = 0.02803	0.5895
323.15 K, m1 = 0.02909	0.6082
323.15 K, m1 = 0.03012	0.623
323.15 K, m1 = 0.03113	0.6393
323.15 K, m1 = 0.03211	0.6494
323.15 K, m1 = 0.03307	0.6638
323.15 K, m1 = 0.03401	0.6772
323.15 K, m1 = 0.03512	0.6913
323.15 K, m1 = 0.03566	0.6951
323.15 K, m1 = 0.03619	0.6993
323.15 K, m1 = 0.03671	0.7037
323.15 K, m1 = 0.03775	0.7171
323.15 K, m1 = 0.03825	0.7266
323.15 K, m1 = 0.03875	0.7317
323.15 K, m1 = 0.03925	0.7354
323.15 K, m1 = 0.03973	0.7413
323.15 K, m1 = 0.04069	0.7517
323.15 K, m1 = 0.04116	0.7566
323.15 K, m1 = 0.04162	0.7617
323.15 K, m1 = 0.04208	0.7694
323.15 K, m1 = 0.04254	0.7737
323.15 K, m1 = 0.04328	0.7801
323.15 K, m1 = 0.04401	0.7896
323.15 K, m1 = 0.04472	0.8
323.15 K, m1 = 0.04542	0.8049
323.15 K, m1 = 0.04611	0.8129
323.15 K, m1 = 0.04678	0.8211
323.15 K, m1 = 0.04745	0.831
323.15 K, m1 = 0.0481	0.8348
323.15 K, m1 = 0.04936	0.8479
323.15 K, m1 = 0.05058	0.8638
323.15 K, m1 = 0.05176	0.8724
